These results are taken from ChEMBL document CHEMBL1147579, “Design, synthesis and evaluation of novel 1,4-naphthoquinone derivatives as antifungal and anticancer agents” (2004).

The subject of assay [1] is Cryptococcus neoformans. The experiment in a line: Antifungal activity against Cryptococcus neoformans. The class given is functional.
The test system of the next assay is Candida albicans. In words: Antifungal activity against Candida albicans. The class given is functional.
For another assay, the system named is Aspergillus fumigatus. In words: Antifungal activity against Aspergillus fumigatus. The class given is functional.
Assay [2] can be described thus: Antifungal activity against Trichophyton mentagrophytes. The assay is classed as functional, Trichophyton mentagraphytes. As to conditions: Trichophyton benhamiae.
A further assay relates to Microsporum canis. In words: Antifungal activity against Microsporum canis. The class given is functional.
Assay [3] has as its system Rattus norvegicus. The experiment in a line: Anticancer activity against Walker 256 carcinoma in rat after administration of 10 mg/kg; Activity expressed as % T/C (Active). The assay is classed as functional.
Assay [4] has as its system Rattus norvegicus. The experiment in a line: Anticancer activity against Walker 256 carcinoma cells in rat after administration of 10 mg/kg; Activity expressed as survivors out of 4 rats (Active). The class given is functional.
The next assay concerns Sporothrix schenckii. In words: Antifungal activity against Sporotrichum schenckii.
Assay [5] concerns Cryptococcus neoformans. The experiment in a line: Antifungal activity against C. neoformans; No activity. The assay is classed as functional.
The test system of another assay is Tolypocladium inflatum. The experiment in a line: Antifungal activity against Sporotrichum schenckii. The class given is functional. Conditions: sporotrichum scenckii.

Values after ≈ are worked out from the molar mass of the structure shown. Bounds are passed on as bounds.

On to `O=C1C=C(Sc2ccccc2)C(=O)c2ccccc21`, for which the MIC was 1.56 µg/mL (≈ 5.86 µM) against Cryptococcus neoformans [1]; 12.5 µg/mL (≈ 46.9 µM) with Candida albicans; 25 µg/mL (≈ 93.9 µM) against Aspergillus fumigatus; less than 0.78 µg/mL in assay [2]; less than 0.98 µg/mL against Microsporum canis.
`CC1=CC(=O)c2c(O)ccc(O)c2C1=O`: the T/C in the assay on Rattus norvegicus [3] came out at 23%. For the same molecule, the Survivors in the assay on Rattus norvegicus [4] stood at 4.
Take `C[C@@H]1[C@H](O)[C@@H](C)/C=C/C=C/C=C/C=C/C=C/C=C/C=C/[C@H](O[C@@H]2O[C@H](C)[C@@H](O)[C@H](N)[C@@H]2O)C[C@@H]2O[C@](O)(C[C@@H](O)C[C@@H](O)[C@H](O)CC[C@@H](O)C[C@@H](O)CC(=O)O[C@H]1C)C[C@H](O)[C@H]2C(=O)O` [AMPHOTERICIN B]: the MIC came out at 0.78 µg/mL (≈ 0.844 µM) against Cryptococcus neoformans [1], 0.39 µg/mL (≈ 0.422 µM) against Candida albicans, 1.56 µg/mL (≈ 1.69 µM) in assay [2] and 1.56 µg/mL (≈ 1.69 µM) with Microsporum canis.
`O=C1c2sc3nccn3c2C(=O)c2c(Cl)ccc(O)c21`: the minimum inhibitory concentration (MIC) was 6.25 µg/mL (≈ 20.5 µM) in the assay with Cryptococcus neoformans [1]; 25 µg/mL (≈ 82 µM) in the assay on Candida albicans; 3.1 µg/mL (≈ 10.2 µM) in the assay with Aspergillus fumigatus; 6.25 µg/mL (≈ 20.5 µM) in [2]; 6.25 µg/mL (≈ 20.5 µM) in the assay with Microsporum canis.
For `O=C1c2ccccc2C(=O)c2c1sc1nccn21`, the MIC in the assay on Cryptococcus neoformans [1] came out at 12.5 µg/mL (≈ 49.2 µM); against Candida albicans, 50 µg/mL (≈ 197 µM); against Aspergillus fumigatus, 25 µg/mL (≈ 98.3 µM); in the assay on Sporothrix schenckii it was 25 µg/mL (≈ 98.3 µM); in assay [2], 25 µg/mL (≈ 98.3 µM); in the assay with Microsporum canis, 25 µg/mL (≈ 98.3 µM).
`O=C1c2sc3nccn3c2C(=O)c2c(O)ccc(O)c21`: the minimum inhibitory concentration (MIC) was less than 12.5 µg/mL with Cryptococcus neoformans [1]; 25 µg/mL (≈ 87.3 µM) in the assay on Candida albicans; less than 12.5 µg/mL with Sporothrix schenckii; 25 µg/mL (≈ 87.3 µM) in assay [2]; 25 µg/mL (≈ 87.3 µM) with Microsporum canis.
In the assay with Rattus norvegicus [3], `O=C1C=CC(=O)c2c(O)ccc(O)c21` [NAPHTHAZALIN] came in with a T/C of 37%. The Survivors in the assay on Rattus norvegicus [4] is 3 µg/mL.
Turning to `Clc1ccc(COC(Cn2ccnc2)c2ccc(Cl)cc2Cl)c(Cl)c1` (stereo unspecified) [MICONAZOLE], the minimal inhibitory concentration (MIC) is 12.5 µg/mL (≈ 30 µM) against Cryptococcus neoformans [1]; 25 µg/mL (≈ 60.1 µM) with Candida albicans; 12.5 µg/mL (≈ 30 µM) in the assay on Aspergillus fumigatus; not above 0.78 µg/mL in [2]; not above 0.78 µg/mL in the assay on Microsporum canis.
Consider `O=C(O)CCSC1=CC(=O)c2c(O)ccc(O)c2C1=O`, for which the minimal inhibitory concentration (MIC) was determined as 1.56 µg/mL (≈ 5.3 µM) in the assay on Cryptococcus neoformans [5], 3.12 µg/mL (≈ 10.6 µM) against Candida albicans, 3.12 µg/mL (≈ 10.6 µM) in assay [2] and 3.12 µg/mL (≈ 10.6 µM) against Microsporum canis.
Turning to NYSTATIN, the MIC against Cryptococcus neoformans [1] is 3.9 µg/mL; against Candida albicans, 7.9 µg/mL; against Tolypocladium inflatum it was 13.2 µg/mL.
Take `O=C1C(CO)=C(Sc2ccccc2)C(=O)c2ccccc21`: the minimum inhibitory concentration (MIC) is 1.56 µg/mL (≈ 5.26 µM) against Cryptococcus neoformans [1]; 25 µg/mL (≈ 84.4 µM) against Candida albicans; less than 0.78 µg/mL with Aspergillus fumigatus; 1.56 µg/mL (≈ 5.26 µM) in assay [2]; 1.56 µg/mL (≈ 5.26 µM) against Microsporum canis.
